Source: paper PMC4844702, “Selective inhibition of the kinase DYRK1A by targeting its folding process” (Nature Communications, 2016)

Experiments:
Test in all cases: Kinase panel (Carna)
Assay type in all cases: biochemical
BRSK2 = target: T1, BRSK2 (Homo sapiens, UniProt Q8IWQ3)
T1 construct: purchased Carna Biosciences
Text: (§1) Detailed information on the assay conditions is available on the website of Carna Biosciences (http://www.carnabio.com).

MAP2K1_Cascade = target: T2, MAP2K1_Cascade (Homo sapiens, UniProt Q02750)
T2 construct: purchased Carna Biosciences

SGK = target: T3, SGK (Homo sapiens, UniProt O00141)
T3 construct: purchased Carna Biosciences
T3 sequence (O00141 whole entry): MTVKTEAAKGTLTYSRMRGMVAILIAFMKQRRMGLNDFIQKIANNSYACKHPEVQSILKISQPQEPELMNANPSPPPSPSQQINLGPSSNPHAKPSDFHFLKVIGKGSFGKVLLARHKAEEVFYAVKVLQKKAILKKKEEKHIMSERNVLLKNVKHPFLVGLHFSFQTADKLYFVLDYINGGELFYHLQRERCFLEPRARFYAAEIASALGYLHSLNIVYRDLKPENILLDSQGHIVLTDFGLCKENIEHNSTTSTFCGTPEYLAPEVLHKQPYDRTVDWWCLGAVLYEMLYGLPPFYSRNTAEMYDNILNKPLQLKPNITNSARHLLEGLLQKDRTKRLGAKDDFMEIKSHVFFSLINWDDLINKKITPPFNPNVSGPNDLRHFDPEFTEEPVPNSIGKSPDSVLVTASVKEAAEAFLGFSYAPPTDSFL

TSSK3 = target: T4, TSSK3 (Homo sapiens, UniProt Q96PN8)
T4 construct: purchased Carna Biosciences
T4 sequence (Q96PN8 whole entry): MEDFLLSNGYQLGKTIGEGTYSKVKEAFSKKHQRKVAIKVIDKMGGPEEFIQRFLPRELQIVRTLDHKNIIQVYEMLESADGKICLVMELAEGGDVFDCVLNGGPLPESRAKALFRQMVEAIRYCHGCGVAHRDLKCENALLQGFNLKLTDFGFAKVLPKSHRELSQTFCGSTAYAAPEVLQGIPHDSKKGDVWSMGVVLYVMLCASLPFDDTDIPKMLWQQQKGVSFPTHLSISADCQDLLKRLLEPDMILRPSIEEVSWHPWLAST
Text: as §1

CaMK4 = target: T5, CaMK4 (Homo sapiens, UniProt Q16566)
T5 construct: purchased Carna Biosciences
T5 sequence (Q16566 whole entry): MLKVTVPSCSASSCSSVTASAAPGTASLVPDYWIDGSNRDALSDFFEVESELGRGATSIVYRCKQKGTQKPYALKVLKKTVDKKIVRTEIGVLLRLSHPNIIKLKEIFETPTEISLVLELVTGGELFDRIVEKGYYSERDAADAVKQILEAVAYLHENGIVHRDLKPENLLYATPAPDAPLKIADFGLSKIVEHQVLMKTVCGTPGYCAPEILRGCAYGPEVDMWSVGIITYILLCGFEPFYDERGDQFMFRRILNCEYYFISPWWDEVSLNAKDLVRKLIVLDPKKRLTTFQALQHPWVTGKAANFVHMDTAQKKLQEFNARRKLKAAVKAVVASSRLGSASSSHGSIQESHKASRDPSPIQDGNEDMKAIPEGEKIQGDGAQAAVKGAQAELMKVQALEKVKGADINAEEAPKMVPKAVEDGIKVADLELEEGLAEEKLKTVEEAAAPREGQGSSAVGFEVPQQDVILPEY

PKCβ1 = target: T6, PKCβ1 (Homo sapiens, UniProt P05771)
T6 construct: purchased Carna Biosciences
Text: as §1

MAPKAPK2 = target: T7, MAPKAPK2 (Homo sapiens, UniProt P49137)
T7 construct: purchased Carna Biosciences

TRKB = target: T8, TRKB (Homo sapiens, UniProt Q16620)
T8 construct: purchased Carna Biosciences
Text: as §1

TAOK2 = target: T9, TAOK2 (Homo sapiens, UniProt Q9UL54)
T9 construct: purchased Carna Biosciences
Text: as §1

CDK3/CycE1 = target: T10, CDK3/CycE1 (Homo sapiens, UniProt Q00526)
T10 construct: purchased Carna Biosciences
Text: as §1

SRPK2 = target: T11, SRPK2 (Homo sapiens, UniProt P78362)
T11 construct: purchased Carna Biosciences
Text: as §1

WNK1 = target: T12, WNK1 (Homo sapiens, UniProt Q9H4A3)
T12 construct: purchased Carna Biosciences
Text: as §1

RSK1 = target: T13, RSK1 (Homo sapiens, UniProt Q15418)
T13 construct: purchased Carna Biosciences

TIE2 = target: T14, TIE2 (Homo sapiens, UniProt Q02763)
T14 construct: purchased Carna Biosciences
Text: as §1

LYNa = target: T15, LYNa (Homo sapiens, UniProt P07948)
T15 construct: purchased Carna Biosciences
T15 sequence (P07948 whole entry): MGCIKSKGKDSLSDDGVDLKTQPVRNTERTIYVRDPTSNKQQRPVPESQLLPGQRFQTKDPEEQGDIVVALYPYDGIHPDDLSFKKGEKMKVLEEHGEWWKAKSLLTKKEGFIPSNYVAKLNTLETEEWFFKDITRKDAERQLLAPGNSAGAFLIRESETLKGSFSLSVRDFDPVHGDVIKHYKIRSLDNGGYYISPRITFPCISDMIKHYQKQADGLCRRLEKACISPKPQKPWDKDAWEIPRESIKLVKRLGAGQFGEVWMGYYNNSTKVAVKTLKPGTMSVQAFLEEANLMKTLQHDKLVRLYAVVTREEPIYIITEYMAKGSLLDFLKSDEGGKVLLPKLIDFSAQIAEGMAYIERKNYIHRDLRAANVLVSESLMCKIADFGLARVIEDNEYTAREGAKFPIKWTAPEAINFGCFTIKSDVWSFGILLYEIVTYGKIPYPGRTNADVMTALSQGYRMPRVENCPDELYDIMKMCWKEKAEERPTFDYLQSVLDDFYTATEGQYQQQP
Text: as §1

MAP3K2_Cascade = target: T16, MAP3K2_Cascade (Homo sapiens, UniProt Q9Y2U5)
T16 construct: purchased Carna Biosciences
Text: as §1

DCAMKL2 = target: T17, DCAMKL2 (Homo sapiens, UniProt Q8N568)
T17 construct: purchased Carna Biosciences
Text: as §1

PKR = target: T18, PKR (Homo sapiens, UniProt P19525)
T18 construct: purchased Carna Biosciences

FER = target: T19, FER (Homo sapiens, UniProt P16591)
T19 construct: purchased Carna Biosciences
Text: as §1

BRAF_Cascade = target: T20, BRAF_Cascade (Homo sapiens, UniProt P15056)
T20 construct: purchased Carna Biosciences
T20 sequence (P15056 whole entry): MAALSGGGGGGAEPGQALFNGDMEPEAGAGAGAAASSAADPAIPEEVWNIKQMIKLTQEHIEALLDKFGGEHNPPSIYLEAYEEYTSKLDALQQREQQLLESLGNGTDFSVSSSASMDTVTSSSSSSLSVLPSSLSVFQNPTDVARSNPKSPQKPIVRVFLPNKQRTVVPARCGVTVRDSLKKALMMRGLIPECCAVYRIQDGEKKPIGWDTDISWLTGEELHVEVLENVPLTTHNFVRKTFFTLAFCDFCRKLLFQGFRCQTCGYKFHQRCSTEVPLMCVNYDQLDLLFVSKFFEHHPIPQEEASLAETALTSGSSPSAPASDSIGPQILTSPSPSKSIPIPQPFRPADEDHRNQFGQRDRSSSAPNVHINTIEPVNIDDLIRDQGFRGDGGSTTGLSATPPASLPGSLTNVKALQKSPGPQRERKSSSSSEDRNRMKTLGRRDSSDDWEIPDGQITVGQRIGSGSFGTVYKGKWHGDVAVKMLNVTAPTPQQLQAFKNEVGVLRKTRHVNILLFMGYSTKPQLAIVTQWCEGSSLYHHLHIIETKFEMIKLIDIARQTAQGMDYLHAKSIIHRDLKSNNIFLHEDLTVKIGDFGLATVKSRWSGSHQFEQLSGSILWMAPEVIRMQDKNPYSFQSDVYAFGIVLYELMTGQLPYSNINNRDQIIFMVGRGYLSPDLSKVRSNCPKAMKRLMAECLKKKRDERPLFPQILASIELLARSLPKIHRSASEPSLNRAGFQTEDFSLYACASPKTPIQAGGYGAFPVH
Text: as §1

NDR1 = target: T21, NDR1 (Homo sapiens, UniProt Q15208)
T21 construct: purchased Carna Biosciences
Text: as §1

MER = target: T22, MER (Homo sapiens, UniProt Q12866)
T22 construct: purchased Carna Biosciences
T22 sequence (Q12866 21-999): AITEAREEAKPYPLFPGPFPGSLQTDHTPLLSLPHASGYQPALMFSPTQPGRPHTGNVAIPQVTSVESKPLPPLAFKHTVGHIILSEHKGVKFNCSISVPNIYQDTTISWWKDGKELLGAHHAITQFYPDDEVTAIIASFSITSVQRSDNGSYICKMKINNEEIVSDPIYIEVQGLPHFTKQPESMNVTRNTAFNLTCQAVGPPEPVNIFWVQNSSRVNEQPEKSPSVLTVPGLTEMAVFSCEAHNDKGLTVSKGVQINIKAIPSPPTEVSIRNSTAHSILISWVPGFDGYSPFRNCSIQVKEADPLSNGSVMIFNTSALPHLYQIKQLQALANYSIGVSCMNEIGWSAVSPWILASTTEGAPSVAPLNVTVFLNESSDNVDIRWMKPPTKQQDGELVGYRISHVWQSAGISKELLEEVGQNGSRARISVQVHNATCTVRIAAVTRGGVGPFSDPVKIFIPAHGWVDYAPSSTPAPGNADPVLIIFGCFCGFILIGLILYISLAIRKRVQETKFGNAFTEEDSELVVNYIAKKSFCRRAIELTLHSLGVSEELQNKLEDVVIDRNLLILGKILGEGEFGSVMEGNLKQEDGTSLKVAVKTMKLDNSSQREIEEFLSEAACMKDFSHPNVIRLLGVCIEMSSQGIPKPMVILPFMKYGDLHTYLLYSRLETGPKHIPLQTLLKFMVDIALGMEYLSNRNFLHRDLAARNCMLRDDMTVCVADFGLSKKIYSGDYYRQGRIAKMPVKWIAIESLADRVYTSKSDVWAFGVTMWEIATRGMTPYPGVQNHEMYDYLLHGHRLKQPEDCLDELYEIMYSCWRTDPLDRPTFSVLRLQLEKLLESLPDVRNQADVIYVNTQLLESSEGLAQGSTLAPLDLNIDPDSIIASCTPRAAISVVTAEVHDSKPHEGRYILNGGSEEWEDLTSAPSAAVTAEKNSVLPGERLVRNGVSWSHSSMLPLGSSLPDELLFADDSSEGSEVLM
Text: as §1

MSSK1 = target: T23, MSSK1 (Homo sapiens, UniProt Q9UPE1)
T23 construct: purchased Carna Biosciences
Text: as §1

AKT1 = target: T24, AKT1 (Homo sapiens, UniProt P31749)
T24 construct: purchased Carna Biosciences
Text: as §1

EGFR = target: T25, EGFR (Homo sapiens, UniProt P00533)
T25 construct: purchased Carna Biosciences

EPHA4 = target: T26, EPHA4 (Homo sapiens, UniProt P54764)
T26 construct: purchased Carna Biosciences

PIK3CA/PIK3R1 = target: T27, PIK3CA/PIK3R1 (Homo sapiens, UniProt P42336)
T27 construct: purchased Carna Biosciences
Text: as §1

PDGFRβ = target: T28, PDGFRβ (Homo sapiens, UniProt P09619)
T28 construct: purchased Carna Biosciences
Text: as §1

MAP3K1_Cascade = target: T29, MAP3K1_Cascade (Homo sapiens, UniProt Q13233)
T29 construct: purchased Carna Biosciences
Text: as §1

GSK3α = target: T30, GSK3α (Homo sapiens, UniProt P49840)
T30 construct: purchased Carna Biosciences

COT_Cascade = target: T31, COT_Cascade (Homo sapiens, UniProt P41279)
T31 construct: purchased Carna Biosciences

JAK1 = target: T32, JAK1 (Homo sapiens, UniProt P23458)
T32 construct: purchased Carna Biosciences
Text: as §1

CK1α = target: T33, CK1α (Homo sapiens, UniProt P48729)
T33 construct: purchased Carna Biosciences

FMS = target: T34, FMS (Homo sapiens, UniProt P07333)
T34 construct: purchased Carna Biosciences
Text: as §1

PHKG2 = target: T35, PHKG2 (Homo sapiens, UniProt P15735)
T35 construct: purchased Carna Biosciences
Text: as §1

EPHB4 = target: T36, EPHB4 (Homo sapiens, UniProt P54760)
T36 construct: purchased Carna Biosciences
Text: as §1

p38β = target: T37, p38β (Homo sapiens, UniProt Q15759)
T37 construct: purchased Carna Biosciences
T37 sequence (Q15759 whole entry): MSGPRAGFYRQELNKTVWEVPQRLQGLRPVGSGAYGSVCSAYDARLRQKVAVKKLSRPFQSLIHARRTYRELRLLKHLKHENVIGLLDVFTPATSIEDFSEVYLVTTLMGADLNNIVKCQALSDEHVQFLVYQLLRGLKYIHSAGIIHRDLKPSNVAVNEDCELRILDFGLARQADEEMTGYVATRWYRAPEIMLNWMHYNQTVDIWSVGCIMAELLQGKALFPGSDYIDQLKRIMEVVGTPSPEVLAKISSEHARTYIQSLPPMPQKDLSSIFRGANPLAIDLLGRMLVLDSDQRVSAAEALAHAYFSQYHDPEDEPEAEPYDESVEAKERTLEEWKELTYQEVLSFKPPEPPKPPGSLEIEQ
Text: as §1

MST3 = target: T38, MST3 (Homo sapiens, UniProt Q9Y6E0)
T38 construct: purchased Carna Biosciences
T38 sequence (Q9Y6E0 whole entry): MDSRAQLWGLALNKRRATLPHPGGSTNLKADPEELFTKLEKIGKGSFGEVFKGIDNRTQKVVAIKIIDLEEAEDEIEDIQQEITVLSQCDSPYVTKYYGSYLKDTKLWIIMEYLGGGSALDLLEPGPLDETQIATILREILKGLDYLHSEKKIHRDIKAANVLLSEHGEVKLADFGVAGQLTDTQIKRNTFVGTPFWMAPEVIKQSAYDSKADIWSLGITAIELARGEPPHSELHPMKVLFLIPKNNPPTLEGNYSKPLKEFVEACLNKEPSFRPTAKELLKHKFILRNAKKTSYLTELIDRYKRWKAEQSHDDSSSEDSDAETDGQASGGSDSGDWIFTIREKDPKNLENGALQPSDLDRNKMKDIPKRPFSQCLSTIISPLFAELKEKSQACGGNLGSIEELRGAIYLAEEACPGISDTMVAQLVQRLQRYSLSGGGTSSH
Text: as §1

NuaK1 = target: T39, NuaK1 (Homo sapiens, UniProt O60285)
T39 construct: purchased Carna Biosciences

MET = target: T40, MET (Homo sapiens, UniProt P08581)
T40 construct: purchased Carna Biosciences
Text: as §1

PEK = target: T41, PEK (Homo sapiens, UniProt Q9NZJ5)
T41 construct: purchased Carna Biosciences
Text: as §1

PAK2 = target: T42, PAK2 (Homo sapiens, UniProt Q13177)
T42 construct: purchased Carna Biosciences
Text: as §1

FYN = target: T43, FYN (Homo sapiens, UniProt P06241)
T43 construct: purchased Carna Biosciences
Text: as §1

MAPKAPK5 = target: T44, MAPKAPK5 (Homo sapiens, UniProt Q8IW41)
T44 construct: purchased Carna Biosciences

T1 sequence (Q8IWQ3 whole entry): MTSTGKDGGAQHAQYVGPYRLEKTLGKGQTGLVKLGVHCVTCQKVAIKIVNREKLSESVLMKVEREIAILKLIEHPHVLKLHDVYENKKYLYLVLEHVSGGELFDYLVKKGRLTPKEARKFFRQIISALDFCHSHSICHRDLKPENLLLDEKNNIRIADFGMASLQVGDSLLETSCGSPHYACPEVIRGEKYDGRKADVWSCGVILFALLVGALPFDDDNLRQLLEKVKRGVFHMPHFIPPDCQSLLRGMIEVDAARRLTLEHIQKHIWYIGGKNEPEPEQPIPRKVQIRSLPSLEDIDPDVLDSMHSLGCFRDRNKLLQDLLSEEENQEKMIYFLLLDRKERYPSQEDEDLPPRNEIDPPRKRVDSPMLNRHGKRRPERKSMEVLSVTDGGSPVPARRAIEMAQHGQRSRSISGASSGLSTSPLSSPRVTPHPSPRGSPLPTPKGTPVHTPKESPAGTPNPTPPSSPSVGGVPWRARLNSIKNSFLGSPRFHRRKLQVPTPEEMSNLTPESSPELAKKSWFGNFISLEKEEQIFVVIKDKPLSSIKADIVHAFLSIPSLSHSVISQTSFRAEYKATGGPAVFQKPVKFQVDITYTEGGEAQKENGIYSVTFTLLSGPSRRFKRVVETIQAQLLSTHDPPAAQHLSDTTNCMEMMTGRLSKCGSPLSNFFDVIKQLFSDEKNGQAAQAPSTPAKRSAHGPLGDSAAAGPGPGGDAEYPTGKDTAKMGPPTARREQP

With `COc1ccc(/C=C2\SC(=S)NC2=O)cc1C#C[Si](C)(C)C` [FINDY] the inhibition at 10 µM (BRSK2) was 5.7%, the inhibition at 10 µM (MAP2K1_Cascade) was 44.2% and the inhibition at 10 µM (SGK) was 27.8%. The inhibition at 10 µM (TSSK3) was 20.3%, the inhibition at 10 µM (CaMK4) was 2.4% and the inhibition at 10 µM (PKCβ1) was 3.5%. The inhibition at 10 µM (MAPKAPK2) was 51.9%, the inhibition at 10 µM (TRKB) was 4.9% and the inhibition at 10 µM (TAOK2) was -1.2%. For the same compound, the inhibition at 10 µM (CDK3/CycE1) was 20.7%, the inhibition at 10 µM (SRPK2) was -5% and the inhibition at 10 µM (WNK1) was 12.6%. It also gave an inhibition at 10 µM (RSK1) of 39.8%, an inhibition at 10 µM (TIE2) of 55.7% and an inhibition at 10 µM (LYNa) of 4%. It also gave an inhibition at 10 µM (MAP3K2_Cascade) of 55.8%, an inhibition at 10 µM (DCAMKL2) of -3.8% and an inhibition at 10 µM (PKR) of 5.8%. It also gave an inhibition at 10 µM (FER) of 14.3%, an inhibition at 10 µM (BRAF_Cascade) of 33.9% and an inhibition at 10 µM (NDR1) of 3.8%. For the same compound, the inhibition at 10 µM (MER) was 3.4%, the inhibition at 10 µM (MSSK1) was 6.6% and the inhibition at 10 µM (AKT1) was 36.6%. The inhibition at 10 µM (EGFR) was -5.1%, the inhibition at 10 µM (EPHA4) was 16.3% and the inhibition at 10 µM (PIK3CA/PIK3R1) was 12.8%. The inhibition at 10 µM (PDGFRβ) was 8.2%, the inhibition at 10 µM (MAP3K1_Cascade) was 44.4% and the inhibition at 10 µM (GSK3α) was 43.4%. The inhibition at 10 µM (COT_Cascade) was 55.4%, the inhibition at 10 µM (JAK1) was 5.7% and the inhibition at 10 µM (CK1α) was 6.1%. It also gave an inhibition at 10 µM (FMS) of 6.8%, an inhibition at 10 µM (PHKG2) of 1.9% and an inhibition at 10 µM (EPHB4) of 20.5%. The inhibition at 10 µM (p38β) was 11.2%, the inhibition at 10 µM (MST3) was 6.4% and the inhibition at 10 µM (NuaK1) was -26.4%. It also gave an inhibition at 10 µM (MET) of 12.4%, an inhibition at 10 µM (PEK) of 13% and an inhibition at 10 µM (PAK2) of -2.5%. It also gave an inhibition at 10 µM (FYN) of 58.4% and an inhibition at 10 µM (MAPKAPK5) of 5.2%.
